Measurements reported in patent US7933647B2, “Methods of increasing lipolysis” (Transfert Plus, S.E.C., priority 2005, dated 2011).

Key:
adipocytes [1] = experiment: Adipocyte lipolysis measured by glycerol release from isolated adipocytes (Examples I-II); type: cell-based, human; conditions: isoproterenol 10^-4 M, 30 minutes
Description: Tissue samples. Adipose tissues were obtained from 11 pre-menopaused women, aged under 45, who were undergoing liposuction or an aesthetic surgery in the supra-iliac region. Adipocyte isolation. The adipose tissues were first placed in Krebs buffer and transported to the laboratory. Fragments of fresh adipose tissue were then incubated in a collagenase type II solution (reconstituted in Krebs buffer, 5 mg of collagenase per gm of tissue; Sigma) for 30 minutes at 37° C. under agitation (100 rpm) in a controlled atmosphere (95% O2, 5% CO2) (Rodbell, 1964). After the incubation period, the cellular suspension was filtered through a 250 μm nylon mesh and separated from the stromal and vascular fraction by flotation. […] Adipocytes were counted using a Neubauer hemacytometer using trypan blue dye. […] Because free fatty acids can be re-esterified Inside the adipocyte while glycerol is not, lipolysis was evaluated by measuring the release of glycerol. Glycerol was indirectly measured by assessing the formation of NADH produced during its enzymatic transformation. NADH was measured using a spectrophotometer (Pharmacia LKB-Novaspec), at a wavelength of 340 nm. Results are expressed as μmol of glycerol released per 10^6 adipocytes per 30 minutes. […] The mean and standard deviation were calculated.

adipocytes [2] = experiment: Adipocyte lipolysis in the biphasic electrical stimulation study, adipocytes from 4 women (Example III); type: cell-based, human; conditions: suprailiac adipocytes of 4 women aged 40-52; non significant level (FIG. 2)
Description: It was tested if biphasic electrical stimulation can induce lipolysis in adipocyte. 4 women between 40-52 years of age were used as subject. Adipose tissue was obtained from suprailiac areas through liposuction. It is disclosed that isoproterenol (ISO) increased adipocyte lipolysis by 15% i.e. at a non significant level (FIG. 2). […] Moreover, the 4 mA biphasic stimulation increased basal lipolysis by 1.8 x thus at a lower level than the 6 mA stimulation.

Question: With CC(C)NCC(O)c1ccc(O)c(O)c1 (stereo not drawn) [isoproterenol] as the compound, how does the “Increase of adipocyte lipolysis compared to control values (BASAL)” value (adipocytes [1]) read?
Answer: 2.6 fold

Question: What about the “Mean glycerol released (lipolysis)” value (adipocytes [1]; 37° C., N=11 individuals, BASAL mean 1.4) of the same compound?
Answer: 3.7 μM of glycerol

Question: What about the “Increase of adipocyte lipolysis” value (adipocytes [2]) of the same compound?
Answer: 15%
